In publication PMC9513230, “Inhibition of Plasmodium falciparum Hsp70-Hop partnership by 2-phenylthynesulfonamide” (Frontiers in Molecular Biosciences, 2022):

Key:
[1] = biological target: T1, PfHop (Plasmodium falciparum, UniProt Q8ILC1); assay: SPR equilibrium binding to immobilized PfHop; settings: SPR, ligand PfHop immobilized, 25°C; read-out: KD
T1 construct: His; made in house; host or cells: E. coli XL1 Blue
T1 sequence (Q8ILC1 1-564): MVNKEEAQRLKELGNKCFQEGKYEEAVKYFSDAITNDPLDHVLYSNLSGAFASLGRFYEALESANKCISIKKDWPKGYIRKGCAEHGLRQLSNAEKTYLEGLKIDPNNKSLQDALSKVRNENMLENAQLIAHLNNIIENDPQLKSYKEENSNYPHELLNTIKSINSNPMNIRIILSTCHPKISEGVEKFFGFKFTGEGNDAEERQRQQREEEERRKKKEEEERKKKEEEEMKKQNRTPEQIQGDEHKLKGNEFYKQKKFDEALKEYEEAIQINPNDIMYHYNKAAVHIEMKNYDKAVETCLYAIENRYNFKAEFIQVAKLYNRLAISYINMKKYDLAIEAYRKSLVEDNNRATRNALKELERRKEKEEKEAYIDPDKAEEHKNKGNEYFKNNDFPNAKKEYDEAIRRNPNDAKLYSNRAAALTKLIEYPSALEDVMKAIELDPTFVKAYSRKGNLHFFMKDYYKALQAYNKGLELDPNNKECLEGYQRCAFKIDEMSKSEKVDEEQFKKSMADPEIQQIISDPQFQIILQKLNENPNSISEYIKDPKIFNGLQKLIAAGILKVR
Procedure: The steady-state equilibrium binding kinetics for the inhibitors on either PfHsp70-1 or PfHop were investigated using BioNavis Navi 420A ILVES multi-parametric surface plasmon resonance (MP-SPR) system (BioNavis, Finland) following a previously described method ([Lebepe et al., 2020]; [Chakafana et al., 2021]). Briefly, filter-sterilized de-gassed PBS (4.3 mM Na2HPO4, 1.4 mM KH2PO4, 137 mM NaCl, 3 mM KCl, 0.005% (v/v) Tween 20, and 20 mM EDTA; pH 7.4) was used as running buffer for the assay. The ligand (0.1 μg/ml of PfHsp70-1/PfHop) was immobilized onto a carboxymethyl dextran (CMD 3-D) gold sensor chip through amine coupling. PES was injected (flow rate of 50 μl/min) as analyte at varying final concentrations (0, 1.25, 2.5, 5, 10, 20 nM). […] Steady-state equilibrium was achieved after allowing the interaction to occur for 8 min at 25°C, followed by dissociation for 4 min at 25°C, respectively. The data generated were analyzed using Data Viewer (BioNavis, Finland) after subtraction of baseline (signals generated on the chip surface without protein immobilized and buffer without inhibitor). The resultant sensorgrams were analyzed to determine the equilibrium binding affinities using Trace Drawer software version 1.8 (Ridgeview Instruments; Sweden).

[2] = biological target: PfHsp70-1NBD (Plasmodium falciparum, UniProt Q8IB24); assay: SPR equilibrium binding to immobilized PfHsp70-1NBD; settings: ligand PfHsp70-1NBD immobilized, 25°C
Chain of PfHsp70-1NBD (Q8IB24 entry or part of it): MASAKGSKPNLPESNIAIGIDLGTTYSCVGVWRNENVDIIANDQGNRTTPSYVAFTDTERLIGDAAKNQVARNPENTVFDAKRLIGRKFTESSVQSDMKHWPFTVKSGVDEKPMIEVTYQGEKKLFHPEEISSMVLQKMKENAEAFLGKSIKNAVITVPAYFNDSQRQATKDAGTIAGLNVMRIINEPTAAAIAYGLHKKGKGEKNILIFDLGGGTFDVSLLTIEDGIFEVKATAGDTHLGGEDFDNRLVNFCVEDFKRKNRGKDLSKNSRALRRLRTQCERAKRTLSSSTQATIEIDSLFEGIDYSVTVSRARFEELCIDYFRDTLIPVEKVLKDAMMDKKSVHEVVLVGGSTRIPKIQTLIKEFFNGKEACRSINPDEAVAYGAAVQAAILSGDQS
Procedure: The steady-state equilibrium binding kinetics for the inhibitors on either PfHsp70-1 or PfHop were investigated using BioNavis Navi 420A ILVES multi-parametric surface plasmon resonance (MP-SPR) system (BioNavis, Finland) following a previously described method ([Lebepe et al., 2020]; [Chakafana et al., 2021]). Briefly, filter-sterilized de-gassed PBS (4.3 mM Na2HPO4, 1.4 mM KH2PO4, 137 mM NaCl, 3 mM KCl, 0.005% (v/v) Tween 20, and 20 mM EDTA; pH 7.4) was used as running buffer for the assay. The ligand (0.1 μg/ml of PfHsp70-1/PfHop) was immobilized onto a carboxymethyl dextran (CMD 3-D) gold sensor chip through amine coupling. […] Similarly, as controls nucleotides (5 µM ATP/ADP) and a known P. falciparum Hsp70 inhibitor, (−)-Epigallocatechin-3-gallate (EGCG; [Zininga et al., 2017b]) were similarly injected at varying final concentrations (0, 1.25, 2.5, 5, 10, 20 nM) over the chip surface. […] The data generated were analyzed using Data Viewer (BioNavis, Finland) after subtraction of baseline (signals generated on the chip surface without protein immobilized and buffer without inhibitor). The resultant sensorgrams were analyzed to determine the equilibrium binding affinities using Trace Drawer software version 1.8 (Ridgeview Instruments; Sweden).

[3] = biological target: PfHsp70-1-PfHop association (Plasmodium falciparum, UniProt Q8IB24+Q8ILC1); assay: ELISA for the direct association of PfHsp70-1 and PfHop; assay type: biochemical
Chain of PfHsp70-1-PfHop association (Q8IB24 entry or part of it, one chain of several): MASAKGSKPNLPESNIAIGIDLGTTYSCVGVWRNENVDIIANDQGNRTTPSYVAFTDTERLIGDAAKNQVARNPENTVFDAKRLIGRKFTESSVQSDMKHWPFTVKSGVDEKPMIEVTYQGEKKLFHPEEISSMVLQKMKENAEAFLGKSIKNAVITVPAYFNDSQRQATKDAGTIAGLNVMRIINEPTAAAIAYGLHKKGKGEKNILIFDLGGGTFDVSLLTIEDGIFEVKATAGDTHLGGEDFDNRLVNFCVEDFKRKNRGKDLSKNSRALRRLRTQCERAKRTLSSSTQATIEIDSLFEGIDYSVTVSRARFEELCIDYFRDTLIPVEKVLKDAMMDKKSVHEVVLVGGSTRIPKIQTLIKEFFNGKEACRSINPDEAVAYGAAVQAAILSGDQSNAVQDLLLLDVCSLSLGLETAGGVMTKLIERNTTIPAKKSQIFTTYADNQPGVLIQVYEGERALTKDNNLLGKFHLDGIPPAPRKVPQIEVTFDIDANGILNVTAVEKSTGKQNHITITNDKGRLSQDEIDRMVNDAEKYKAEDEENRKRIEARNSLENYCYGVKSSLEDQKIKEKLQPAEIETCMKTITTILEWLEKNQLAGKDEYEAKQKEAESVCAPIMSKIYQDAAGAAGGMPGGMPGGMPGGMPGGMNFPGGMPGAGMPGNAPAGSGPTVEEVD
Procedure: An enzyme-linked immunosorbent assay (ELISA) was used to validate the effect of PES on the direct association of PfHsp70-1 and PfHop following a previously described protocol ([Mabate et al., 2018]). Briefly, ligand (5 μg/ml of PfHsp70-1) suspended in 5 mM sodium bicarbonate (NaHCO3) at pH 9.5 was noncovalently immobilized onto a 96 well plate overnight at 4 C. BSA (5 μg/ml) was used as a ligand for the negative control. The wells were washed with 150 µl TBST which contains (Tris-buffered saline- Tween (TBST; 20 mM Tris HCl, pH 7.5, 500 mM NaCl supplemented with 0.1% Tween 20) prior to blocking with 5% fat-free milk in TBST and incubated at 25 C for 1 h. The wells were washed using TBST for a total of 10 min. Varying concentrations (0–1,000 nM) of analyte PfHop were added to the wells and incubated for 2 h at 25 °C. To remove the unbound analyte, the plate was washed with 150 µl TBST three times before the addition of rabbit-raised α-PfHop antibody (1: 4,000) followed by incubation at 25°C for 1 h. Subsequently, the wells were washed with 150 µl TBST three times before the addition of 100 µl secondary HRP conjugated goat-raised α-rabbit antibody (1: 4,000) and incubated for 45 min at 25 °C. The substrate, 3,3’5,5’ –tetramethylbenzidine (TMB) (Bio Scientific, United States) was added into the wells and incubated for 2 min at 25 C. Color development was monitored by recording absorbance readings at 370 nm at 5 min time intervals for 30 min using a SpectraMax M3 Microplate reader (Molecular Devices, United States). To determine the effect of the inhibitor, the assay was conducted in the presence of 25 µM) of PES. […] Furthermore, the assay was repeated interchanging the ligand and analyte to validate data reproducibility. The generated data were analyzed taking into account the background signal generated by BSA which served as the control protein. The absorbance values obtained at the highest concentration of each analyte were averaged to represent maximum (100%) binding. Titration curves were then generated using GraphPad Prism 9.3.1 (GraphPad Software, United States). The relative binding affinities of PES under each experimental setting were normalized relative to the affinity estimated for assay conducted in the absence of nucleotide at the highest concentration of PfHop. Statistical analysis was conducted to establish significant differences at p < 0.05 using a student t-test.

[4] = test system: Asexual P. falciparum strain 3D7 parasites; assay: Parasite growth inhibition assay (SYBR Gold); assay type: cell-based; settings: Plasmodium falciparum; P. falciparum 3D7, asexual blood stage, 96 h, n = 3; read-out: IC50 parasite growth
Procedure: Parasite growth without any drug present, which allowed the parasites to proliferate unrestricted, was used as negative drug control. SYBRTM Gold DNA stain (Invitrogen, ThermoFisher Scientific Inc., Germany) was used to measure the proliferation of the parasites compared to the controls as previously described ([[…] al., 2004]). Fluorescence was measured using a TECAN Spark® multimode microplate reader (Tecan Trading AG, Switzerland) and the data were analyzed using SigmaPlot, version 12 (Systat Software Inc., IL, United States).

[5] = biological target: T1, PfHop; assay: Intrinsic fluorescence analysis of PfHop tertiary structure; settings: PfHop 4 µM with 20 µM PES, excitation 295 nm; apo state 339 nm
Procedure: The effect of PES on the tertiary structural conformation of recombinant PfHsp70-1 and PfHop proteins relative to the nucleotide-dependent conformations were assessed by monitoring intrinsic fluorescence as previously described ([Zininga et al., 2016]; [Lebepe et al., 2020]). […] The assay was repeated in the presence of 20 µM PES. Fluorescence emission spectra were monitored at 300–400 nm after initial excitation at 295 nm. The spectra data collected from seven spectral scans were averaged and processed taking into account the baseline (effect of buffer in the absence of protein).

[6] = test system: PfHsp70-1; assay: MDH heat-induced aggregation suppression (holdase chaperone activity); assay type: biochemical, Plasmodium falciparum; settings: MDH aggregation at 51°C, 360 nm; PES 5-100 nM
Procedure: In the current study, we investigated the effect of PES on the holdase chaperone activity of PfHsp70-1. The assay was initiated by adding 1,25 µM MDH and 0,75 µM PfHsp70-1 to the assay buffer (50 mM Tris-HCl, 100 mM NaCl; pH 7.4) and heated to 51°C. Aggregation of MDH was monitored as a function of light scattering at 360 nm over 30 min at 51°C in a SpectraMax M3 (Molecular Devices, United States) microplate spectrometer. The assay was repeated at varying final concentrations (5, 15, 25, 50, 100 nM) of PES. The chaperone function of PfHsp70-1 under various experimental conditions was compared to the activity of the chaperone recorded in the absence of nucleotide. Statistical analysis was conducted using a student t-test and a p < 0.05 represented functionally significant variation.

NS(=O)(=O)C#Cc1ccccc1 [PES, 2-Phenylthynesulfonamide]
Kd [1]: 707 ± 70 nM | Kd [2]: 7390 ± 90 nM | Effect on association of PfHsp70-1 and PfHop ([3]; 25 µM nucleotide or inhibitor): abrogated the interaction of PfHsp70-1 and PfHop | IC50 ([3]; ligand PfHop, analyte PfHsp70-1): 38.1 ± 3.6 nM | IC50 ([3]; ligand PfHsp70-1, analyte PfHop): 32.4 ± 2.1 nM | IC50 [4]: 38700 ± 700 nM | Fluorescence emission peak [5]: 340 nm | Effect on holdase chaperone activity of PfHsp70-1 [6]: inhibited the chaperone activity of PfHsp70-1 in a concentration-dependent fashion
